Data: paper PMC12227661, “Shedding Light on the Phytochemical and Biological Fingerprints of Fibigia clypeata (L.) Medik Essential Oil as a Pharmacotherapeutic Agent” (Food Science & Nutrition, 2025)
In brackets after ≈: the same amount, converted by molar mass.

Experiments:
[1] = DPPH free radical scavenging activity assay
Procedure: The DPPH radical scavenging activity assay has been performed according to the method of Blois et al. with minor modifications (Blois [1958]). Butylated Hydroxy Toluene (BHT), Butylated Hydroxy Anisole (BHA), and α‐TOC (Tocopherol) were also assayed as standards for comparison.

[2] = ABTS cation radical decolorization activity; settings: footnote a: given as IC50
From the text: The procedure was followed from the literature (Miller et al. [1993]) and the measurements at 734 nm were read for each concentration relative to a blank absorbance (DMSO). BHA, BHT, and ‐TOC were used as standards. The obtained values were compared to the standards.

[3] = CUPRAC cupric ion‐reducing antioxidant capacity; settings: absorbance 450 nm after 30 min
Procedure: The antioxidant capacity assay to identify the reductive efficiencies of the essential oil for Cu metal was performed according to the method reported in the literature (Apak et al. [2005]). The absorbances were measured at 450 nm after 30 min. BHA, BHT, and α‐TOC were used as standards.

[4] = test system: various bacterial strains; set-up: method as in Kyung and Fleming [1997]; settings: ref Kyung and Fleming [1997]; cited from earlier work
four yeast strains = test system: four yeast strains; set-up: method as in Kyung and Fleming [1997]; settings: ref Kyung and Fleming [1997]; cited from earlier work
[5] = target: T1, Acetylcholinesterase (AChE) (Electrophorus electricus, UniProt O42275); set-up: method as in Ryan and Bryan [1988]; settings: ref Ryan and Bryan [1988]; cited from earlier work
T1 construct: purchased Sigma C3389
T1 sequence (O42275 24-633): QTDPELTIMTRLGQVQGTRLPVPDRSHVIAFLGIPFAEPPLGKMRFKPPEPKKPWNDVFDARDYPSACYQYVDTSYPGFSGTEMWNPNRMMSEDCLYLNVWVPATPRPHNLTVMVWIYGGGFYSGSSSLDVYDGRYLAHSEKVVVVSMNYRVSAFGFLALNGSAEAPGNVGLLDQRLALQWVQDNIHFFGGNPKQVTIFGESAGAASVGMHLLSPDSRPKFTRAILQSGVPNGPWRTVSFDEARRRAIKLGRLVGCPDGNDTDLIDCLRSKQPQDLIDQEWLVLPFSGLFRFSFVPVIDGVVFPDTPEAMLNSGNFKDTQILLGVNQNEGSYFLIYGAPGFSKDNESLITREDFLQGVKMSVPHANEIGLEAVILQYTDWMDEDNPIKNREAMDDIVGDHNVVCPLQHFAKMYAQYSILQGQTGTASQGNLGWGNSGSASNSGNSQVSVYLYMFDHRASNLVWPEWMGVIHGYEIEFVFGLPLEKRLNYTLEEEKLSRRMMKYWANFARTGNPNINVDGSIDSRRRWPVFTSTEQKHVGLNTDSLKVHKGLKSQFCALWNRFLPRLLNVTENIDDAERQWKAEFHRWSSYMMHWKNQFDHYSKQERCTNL

| Compound | IC50 values DPPH free radical [1] | A 0.5 values ABTS cation radical [2] | A 0.5 values CUPRAC [3] | MIC [4] | MIC (four yeast strains) | AChE inhibition [5] |
| --- | --- | --- | --- | --- | --- | --- |
| COc1ccc(O)c(C(C)(C)C)c1 [BHA, Butylated Hydroxy Anisole] | 3.22 ± 0.08 µg/mL (≈ 17.9 µM) | 2.74 ± 0.03 µg/mL | 4.14 ± 0.17 µg/mL | – | – | – |
| Cc1cc(C(C)(C)C)c(O)c(C(C)(C)C)c1 [BHT, Butylated Hydroxy Toluene] | 16.71 ± 0.80 µg/mL (≈ 75.8 µM) | 4.44 ± 0.30 µg/mL | 3.93 ± 0.24 µg/mL | – | – | – |
| CSSSC [Compound 2, Dimethyl trisulfide] | – | – | – | 200 ppm | 20 ppm | – |
| C=CC(C)(O)CCC=C(C)C (stereo not drawn) [Compound 6, Linalool] | – | – | – | – | – | no significant inhibition |
| Cc1c(C)c2c(c(C)c1O)CC[C@@](C)(CCC[C@H](C)CCC[C@H](C)CCCC(C)C)O2 [α‐TOC, Tocopherol] | 1.41 ± 0.04 µg/mL (≈ 3.27 µM) | 8.48 ± 0.43 µg/mL | 13.64 ± 0.32 µg/mL | – | – | – |
